Patent US4861788A, “Antibacterial 1-normon-2-yl-heterocyclic compounds” (Beecham Group plc, priority 1983, dated 1989)
≈ marks a conversion by molar mass, not a printed value. Read-outs that look alike come from different tables or passages of the source.

What was measured:
[1] = tested on: Corynebacterium pyogenes CY1; test: MIC against veterinary bacteria in vitro (Diagnostic Sensitivity Test Agar); details: CY1, 18 h
Description: (§2) The activity of the normonyl derivatives of the Examples against various veterinarily important bacteria, was assayed in vitro using two-fold serial dilutions in Diagnostic Sensitivity Test Agar inoculated with 10^4 organisms.

Staph. aureus Oxford = test: MIC against human bacteria in vitro (nutrient agar, chocolated horse blood); assay type: cell-based; details: Staphylococcus aureus
In short: (§1)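 Agar dilution series; medium supplemented with 5% chocolated horse blood; MIC taken from the dilution series.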

P. mirabilis 889 = test: as above; assay type: cell-based; details: Proteus mirabilis; human; P. mirabilis 889; 18 hours at 37° C; read-out: MIC
In short: as §1

Strep. agalactiae 2788-B = test: as above; assay type: cell-based; details: Streptococcus agalactiae; human; Strep. agalactiae 2788-B; 18 hours at 37° C; read-out: MIC
In short: as §1

[2] = tested on: Haemophilus influenzae Wy21; test: as above; assay type: cell-based; details: human; Haemophilus influenzae Wy21; 18 hours at 37° C; read-out: MIC
In short: as §1

[3] = tested on: Pasteurella multocida 1633; test: as above; assay type: cell-based; details: human; Pasteurella multocida 1633; 18 hours at 37° C; read-out: MIC
In short: as §1

Strep. spp. 64/848-C = test: as above; assay type: cell-based; details: human; Strep. spp. 64/848-C; 18 hours at 37° C; read-out: MIC
In short: as §1

Sarcina lutea 8340 = test: as above; assay type: cell-based; details: Micrococcus luteus; human; Sarcina lutea 8340; 18 hours at 37° C; read-out: MIC
In short: as §1

E. coli NCTC 10418 = test: as above; assay type: cell-based; details: Escherichia coli, NCTC10418; human; E. coli NCTC 10418; 18 hours at 37° C; read-out: MIC
In short: as §1

K. aerogenes A = test: as above; assay type: cell-based; details: Klebsiella aerogenes; human; K. aerogenes A; 18 hours at 37° C; read-out: MIC
In short: as §1

[4] = tested on: Ps. aeruginosa NCTC 10662; test: as above; assay type: cell-based; details: Pseudomonas aeruginosa, NCTC10662; human; Ps. aeruginosa NCTC 10662; 18 hours at 37° C; read-out: MIC
In short: as §1

Staph. aureus Russell = test: as above; assay type: cell-based; details: Staphylococcus aureus; human; Staph. aureus Russell; 18 hours at 37° C; read-out: MIC
In short: as §1

[5] = tested on: Neisseria catarrhalis 1502; test: as above; assay type: cell-based
In short: as §1

S. typhimurium S18 = test: MIC against veterinary bacteria in vitro (Diagnostic Sensitivity Test Agar); details: Salmonella enterica, 18 h
Description: as §2

[6] = tested on: M. hyopneumoniae J2206/183^b; test: MIC against Mycoplasma in vitro (Friis broth with agarose); assay type: cell-based; details: Mesomycoplasma hyopneumoniae, 144 h
S. dublin S7 = test: MIC against veterinary bacteria in vitro (Diagnostic Sensitivity Test Agar); details: Salmonella enterica, S7, 18 h
Description: as §2

B. subtilis ATCC 6633 = test: as above; details: Bacillus subtilis, ATCC6633, 18 h
Description: as §2

[7] = tested on: Erysipelothrix rhusiopathiae NCTC 8163; test: as above; details: NCTC8163, 18 h
Description: as §2

M. bovis NCTC 10131 = test: microbe, parasite or virus in culture; assay type: cell-based; details: NCTC10131, 144 h
M. hyopneumoniae HK (2) = test: MIC against Mycoplasma in vitro (Friis broth with agarose); assay type: cell-based; details: Mesomycoplasma hyopneumoniae, 144 h
M. gallisepticum S6 = test: as above; assay type: cell-based; details: Mycoplasmoides gallisepticum, 144 h; M. gallisepticum S6; 6 days at 37° C; read-out: MIC
[8] = tested on: M. hyopneumoniae ATCC 25095; test: as above; assay type: cell-based; details: Mesomycoplasma hyopneumoniae, ATCC25095, 144 h
[9] = tested on: Corynebacterium xerosis 9755; test: MIC against human bacteria in vitro (nutrient agar, chocolated horse blood); assay type: cell-based; details: human; Corynebacterium xerosis 9755; 18 hours at 37° C; read-out: MIC
In short: as §1

[10] = tested on: Strep. pyogenes R80/421-A; test: as above; assay type: cell-based; details: Streptococcus pyogenes; human; Strep. pyogenes R80/421-A; 18 hours at 37° C; read-out: MIC
In short: as §1

M. hyopneumoniae LABER = test: MIC against Mycoplasma in vitro (Friis broth with agarose); assay type: cell-based; details: Mesomycoplasma hyopneumoniae, 144 h
[11] = tested on: M. hyopneumoniae PW/C/210; test: as above; assay type: cell-based; details: Mesomycoplasma hyopneumoniae, 144 h; M. hyopneumoniae PW/C/210; 6 days at 37° C; read-out: MIC
M. hyopneumoniae NB12 = test: as above; assay type: cell-based; details: Mesomycoplasma hyopneumoniae, 144 h; M. hyopneumoniae NB12; 6 days at 37° C; read-out: MIC
[12] = human, Staph. aureus Oxford, 18 hours at 37° C, read-out: MIC
[13] = M. hyopneumoniae J2206/183^b, 6 days at 37° C, read-out: MIC
[14] = M. hyopneumoniae HK (2), 6 days at 37° C, read-out: MIC

SMILES: CC(=Cc1nnc(-c2ccco2)o1)CC1OCC(CC2OC2C(C)C(C)O)C(O)C1O (centres unmarked) [Example 8, 2-(2-Furyl)-5-(1-normon-2-yl)-1,3,4-oxadiazole A]
- MIC [1]: > 80 µg/mL
- MIC (Staph. aureus Oxford; [12]): 4 µg/mL (≈ 9.21 µM)
- MIC (P. mirabilis 889): > 128 µg/mL
- MIC (Strep. agalactiae 2788-B): 32 µg/mL (≈ 73.6 µM)
- MIC [2]: 0.25 µg/mL (≈ 0.575 µM)
- MIC [3]: 1 µg/mL (≈ 2.3 µM)
- MIC (Strep. spp. 64/848-C): 32 µg/mL (≈ 73.6 µM)
- MIC (Sarcina lutea 8340): > 128 µg/mL
- MIC (E. coli NCTC 10418): > 128 µg/mL
- MIC (K. aerogenes A): > 128 µg/mL
- MIC [4]: > 128 µg/mL
- MIC (Staph. aureus Russell): 64 µg/mL (≈ 147 µM)
- MIC ([5]; human, Neisseria catarrhalis 1502, 18 hours at 37° C, read-out: MIC): 0.5 µg/mL (≈ 1.15 µM)
- MIC (S. typhimurium S18): > 80 µg/mL
- MIC [6, 13]: 10 µg/mL (≈ 23 µM)
- MIC (S. dublin S7): > 80 µg/mL
- MIC (B. subtilis ATCC 6633): 10 µg/mL (≈ 23 µM)
- MIC [7]: > 80 µg/mL
- MIC (M. bovis NCTC 10131): 0.1 µg/mL (≈ 0.23 µM)
- MIC (M. hyopneumoniae HK (2); [14]): 10 µg/mL (≈ 23 µM)
- MIC (M. gallisepticum S6): > 10 µg/mL

SMILES: CC(=Cc1nc(-c2ccc([N+](=O)[O-])cc2)no1)CC1OCC(CC2OC2C(C)C(C)O)C(O)C1O (centres unmarked) [Example 16, 5-(1-Normon-2-yl)-3-(4-nitrophenyl)-1,2,4-oxadiazole]
- MIC [1]: > 80 µg/mL
- MIC [8]: 0.1 µg/mL (≈ 0.204 µM)
- MIC (Staph. aureus Oxford; [12]): 16 µg/mL (≈ 32.7 µM)
- MIC (P. mirabilis 889): > 64 µg/mL
- MIC [9]: > 64 µg/mL
- MIC (Strep. agalactiae 2788-B): 32 µg/mL (≈ 65.4 µM)
- MIC [2]: 4 µg/mL (≈ 8.17 µM)
- MIC [3]: 32 µg/mL (≈ 65.4 µM)
- MIC (Strep. spp. 64/848-C): 32 µg/mL (≈ 65.4 µM)
- MIC (Sarcina lutea 8340): > 64 µg/mL
- MIC (E. coli NCTC 10418): > 64 µg/mL
- MIC (K. aerogenes A): > 64 µg/mL
- MIC [4]: > 64 µg/mL
- MIC (Staph. aureus Russell): 16 µg/mL (≈ 32.7 µM)
- MIC [10]: 32 µg/mL (≈ 65.4 µM)
- MIC (S. typhimurium S18): > 80 µg/mL
- MIC [6, 13]: 0.5 µg/mL (≈ 1.02 µM)
- MIC (S. dublin S7): > 80 µg/mL
- MIC (B. subtilis ATCC 6633): 2.5 µg/mL (≈ 5.11 µM)
- MIC [7]: 10 µg/mL (≈ 20.4 µM)
- MIC (M. bovis NCTC 10131): 0.25 µg/mL (≈ 0.511 µM)
- MIC (M. gallisepticum S6): > 10 µg/mL
- MIC (M. hyopneumoniae LABER): 0.25 µg/mL (≈ 0.511 µM)

SMILES: CSc1ccc(-c2nnc(C=C(C)CC3OCC(CC4OC4C(C)C(C)O)C(O)C3O)o2)cc1 (centres unmarked) [Example 3, 2-p-Methylthiophenyl-5-(1-normon-2-yl)-1,3,4-oxadiazole A]
- MIC [11]: 0.5 µg/mL (≈ 1.02 µM)
- MIC [1]: > 80 µg/mL
- MIC ([8]; M. hyopneumoniae ATCC 25095, 6 days at 37° C, read-out: MIC): 1 µg/mL (≈ 2.04 µM)
- MIC (Staph. aureus Oxford; [12]): 8 µg/mL (≈ 16.3 µM)
- MIC (P. mirabilis 889): > 128 µg/mL
- MIC [9]: > 128 µg/mL
- MIC (Strep. agalactiae 2788-B): 32 µg/mL (≈ 65.2 µM)
- MIC [2]: 2 µg/mL (≈ 4.08 µM)
- MIC [3]: 8 µg/mL (≈ 16.3 µM)
- MIC (Strep. spp. 64/848-C): 16 µg/mL (≈ 32.6 µM)
- MIC (Sarcina lutea 8340): > 128 µg/mL
- MIC (E. coli NCTC 10418): > 128 µg/mL
- MIC (K. aerogenes A): > 128 µg/mL
- MIC [4]: > 128 µg/mL
- MIC (Staph. aureus Russell): 8 µg/mL (≈ 16.3 µM)
- MIC [10]: 16 µg/mL (≈ 32.6 µM)
- MIC (S. typhimurium S18): > 80 µg/mL
- MIC (S. dublin S7): > 80 µg/mL
- MIC [7]: 40 µg/mL (≈ 81.5 µM)
- MIC (M. bovis NCTC 10131): 0.1 µg/mL (≈ 0.204 µM)
- MIC (M. hyopneumoniae HK (2); [14]): 1 µg/mL (≈ 2.04 µM)
- MIC (M. hyopneumoniae NB12): 1 µg/mL (≈ 2.04 µM)
- MIC (M. gallisepticum S6): > 10 µg/mL
- MIC (M. hyopneumoniae LABER; M. hyopneumoniae LABER, 6 days at 37° C, read-out: MIC): 1 µg/mL (≈ 2.04 µM)

SMILES: CC(=Cc1nnc(-c2ccc(N(C)C)cc2)o1)CC1OCC(CC2OC2C(C)C(C)O)C(O)C1O (centres unmarked) [Example 10, 2-(4-Dimethylaminophenyl)-5-(1-normon-2-yl)-1,3,4-oxadiazole A]
- MIC [1]: > 80 µg/mL
- MIC (Staph. aureus Oxford; 18 h): 1 µg/mL (≈ 2.05 µM)
- MIC (P. mirabilis 889): > 128 µg/mL
- MIC (Strep. agalactiae 2788-B): 16 µg/mL (≈ 32.8 µM)
- MIC [2]: 2 µg/mL (≈ 4.1 µM)
- MIC [3]: 16 µg/mL (≈ 32.8 µM)
- MIC (Strep. spp. 64/848-C): 16 µg/mL (≈ 32.8 µM)
- MIC (Sarcina lutea 8340): > 128 µg/mL
- MIC (E. coli NCTC 10418): > 128 µg/mL
- MIC (K. aerogenes A): > 128 µg/mL
- MIC [4]: > 128 µg/mL
- MIC (Staph. aureus Russell): 4 µg/mL (≈ 8.2 µM)
- MIC ([5]; Neisseria, 1502, 18 h): 0.5 µg/mL (≈ 1.03 µM)
- MIC (S. typhimurium S18): > 80 µg/mL
- MIC [6]: 5 µg/mL (≈ 10.3 µM)
- MIC (S. dublin S7): > 80 µg/mL
- MIC (B. subtilis ATCC 6633): 5 µg/mL (≈ 10.3 µM)
- MIC [7]: 40 µg/mL (≈ 82 µM)
- MIC (M. bovis NCTC 10131): 0.25 µg/mL (≈ 0.513 µM)
- MIC (M. hyopneumoniae HK (2)): 5 µg/mL (≈ 10.3 µM)
- MIC (M. gallisepticum S6): > 10 µg/mL
